Source: patent US12459926B2, “THRβ receptor agonist compound and preparation method and use thereof” (Terns, Inc., priority 2018, dated 2025)

How the values were obtained:
TRβ LBD = TRβ LBD (Homo sapiens, UniProt P10828); settings: ratio of THRα to THRβ binding force
Procedure: Main Experimental Material and Apparatus:
All compounds were dissolved in dimethyl sulfoxide to prepare a 10 mmol stock solution.
For long-term storage, compounds shall be placed into a refrigerator at −20° C.
3.1 Preparation of 1× Reaction Buffer

[1] = Pharmacokinetic evaluation in rats after intragastric infusion; format: in vivo; settings: male SD rats, 2 mg/kg single dose, plasma
Procedure: Rats were used as test animals. […] The pharmacokinetic behaviors of the compounds of the present invention in rats were studied, and the pharmaceutical metabolism characteristics thereof were evaluated. […] The non-compartment model method (NCA) was utilized to calculate the pharmacokinetic parameters, particularly as shown in Table 2 below.
Drug Preparation: a certain amount of the drug was taken and added into a 2% Klucel LF+0.1% Tween 80 aqueous solution, to prepare a clear solution or a uniform suspension.
Dosage: SD rats were fasted overnight and given the drug by intragastric infusion at an administrated dose of 2 mg/kg and an administrated volume of 10 mL/kg each.
The heparinized sample tubes were then stored at −20° C., and the rats were allowed to eat food 2 h after the dosage.
Determination of contents of the compounds to be tested in the plasma of rats after intragastric infusion of the drugs at different concentrations: the plasma samples were thawed at room temperature, 50 μL each was taken and added into 130 μL of an internal standard working solution (1000 ng/mL, acetonitrile, tolbutamide), and the mixture was whirled for about 1 min and then centrifugated at 4° C. and 13000 rpm for 10 min. 50 μL of the supernatant was taken and mixed with 100 μL of 50% acetonitrile water, and then introduced for LC/MS/MS analysis.

TRβ LBD, sequence (P10828 217-461 limits assumed, other chains not shown): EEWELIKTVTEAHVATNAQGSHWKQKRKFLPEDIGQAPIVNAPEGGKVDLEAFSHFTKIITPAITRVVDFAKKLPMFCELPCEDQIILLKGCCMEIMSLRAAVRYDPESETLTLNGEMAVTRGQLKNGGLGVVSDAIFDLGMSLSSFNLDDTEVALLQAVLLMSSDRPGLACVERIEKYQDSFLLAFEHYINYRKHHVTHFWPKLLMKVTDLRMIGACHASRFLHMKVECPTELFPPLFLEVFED
TRβ LBD, sequence (P28702 whole entry partner, other chains not shown, the tested form may be a part): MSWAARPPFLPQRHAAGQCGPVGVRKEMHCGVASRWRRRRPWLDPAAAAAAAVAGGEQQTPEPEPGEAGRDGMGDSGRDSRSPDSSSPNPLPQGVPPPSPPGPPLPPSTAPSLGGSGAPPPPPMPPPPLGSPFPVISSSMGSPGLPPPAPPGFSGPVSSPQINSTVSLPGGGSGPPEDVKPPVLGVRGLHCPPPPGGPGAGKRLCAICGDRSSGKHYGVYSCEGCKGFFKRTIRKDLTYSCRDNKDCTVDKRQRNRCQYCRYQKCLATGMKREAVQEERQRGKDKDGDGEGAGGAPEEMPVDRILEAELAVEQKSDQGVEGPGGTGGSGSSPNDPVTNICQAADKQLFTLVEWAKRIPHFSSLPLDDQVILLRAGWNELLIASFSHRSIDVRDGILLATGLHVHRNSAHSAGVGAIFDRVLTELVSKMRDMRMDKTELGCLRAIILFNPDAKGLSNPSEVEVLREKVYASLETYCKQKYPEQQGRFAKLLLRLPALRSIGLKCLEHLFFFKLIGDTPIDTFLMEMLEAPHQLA

Row | SMILES | THRα/β selectivity (factor) (TRβ LBD) | Curve area [1] [ng·h/mL] | Time to peak [1] [h] | half-life ([1]; rat, po) [h]
1 | N#Cc1nn(-c2cc(Cl)c(Oc3n[nH]c(=O)c4c3CCCC4)c(Cl)c2)c(=O)[nH]c1=O [Embodiment 1, 2-(3,5-dichloro-4-((4-oxo-3,4,5,6,7,8-hexahydrophthalazin-1-yl)oxy)phenyl)-3,5-dioxo-2,3,4,5-tetrahydro-1,2,4-triazine-6-nitrile] | >8.1 |  |  | 
2 | CC1(C)CCc2c(Oc3c(Cl)cc(-n4nc(C#N)c(=O)[nH]c4=O)cc3Cl)n[nH]c(=O)c21 [Embodiment 4, 2-(3,5-dichloro-4-((7,7-dimethyl-1-oxo-2,5,6,7-tetrahydro-1H-cyclopenta[d]pyridazin-4-yl)oxy)phenyl)-3,5-dioxo-2,3,4,5-tetrahydro-1,2,4-triazine-6-carbonitrile] |  | 9242 ± 1245 | 5.33 ± 1.15 | 5.14 ± 0.83
3 | N#Cc1nn(-c2cc(Cl)c(Oc3n[nH]c(=O)c4ccccc34)c(Cl)c2)c(=O)[nH]c1=O [Embodiment 9, 2-(3,5-dichloro-4-((4-oxo-3,4-dihydrophthalazin-1-yl)oxo)phenyl)-3,5-dioxo-2,3,4,5-tetrahydro-1,2,4-triazine-6-nitrile] | >58.8 |  |  | 
4 | N#Cc1nn(-c2cc(Cl)c(Oc3n[nH]c(=O)c4c(Cl)cccc34)c(Cl)c2)c(=O)[nH]c1=O [Embodiment 10, 2-(3,5-dichloro-4-((5-chloro-4-oxo-3,4-dihydrophthalazin-1-yl)oxo)phenyl)-3,5-dioxo-2,3,4,5-tetrahydro-1,2,4-triazine-6-nitrile] | >6.80 |  |  | 
